Non-standard residues stand in square brackets, D forms with d. No end group written: not given here. KLH = keyhole limpet hemocyanin; Ahx = NCCCCCC(=O)O
What was measured:
[1] = system: aggregated human αSyn; assay: Antibody-inducing ability in mice: ELISA antibody titer of immune serum with respect to aggregated human αSyn; format: in vivo, mouse; conditions: for Antibody titer with respect to aggregated human αSyn (N = 4 − 6, mean ± standard deviation): Example 2, balb/c mice, i.m. twice at 2-week interval, Alum, AJ conjugates 250 μg/mouse, KLH-DMPVDPDN 25 μg/mouse, serum 2 weeks after second administration; for Antibody titer with respect to aggregated human αSyn, relative to control: mice; for Antibody-inducing ability regarding the aggregated human αSyn (in words): Example 2, balb/c mice
Procedure: (§1) Using the various AJ peptide-human αSyn peptide conjugates produced in Example 1, an antibody-inducing ability with respect to human αSyn in mice was evaluated. The various AJ-human αSyn peptide conjugates (250 μg/mouse) or KLH-DMPVDPDN (25 μg/mouse) in physiological saline were intramuscularly administered to balb/c mice (females, 6 weeks old, CLEA Japan, Inc.) twice at a 2-week interval for immunization using aluminum hydroxide (Alum) (InvivoGen, 50 μg/mouse) as an adjuvant. As a negative control, physiological saline (100 μL/mouse) comprising the same amount of aluminum hydroxide was administered twice. Two weeks after the second administration, serum was recovered to evaluate the antibody titer with respect to human αSyn by ELISA.
(§2) ELISA was performed by the following method. 96-well plates were coated with human αSyn (Sigma) at 0.2 μg/well. After washing with PBST (Phosphate Buffered Saline comprising 0.05% Tween) once, blocking was performed with 3% skim milk (FUJIFILM Wako Pure Chemical Corporation). After washing with PBST three times, diluted serum was added to cause a reaction at room temperature for 1 hour. Furthermore, after washing with PBST three times, Goat anti-mouse IgG-HRP (abcam) was added to cause a reaction at room temperature for 1 hour. After washing with PBST three times, SureBlue TMB Microwell Peroxidase Substrate (KPL) was added to cause a reaction at room temperature for 10 minutes while light shielding. An equal volume of a TMB Stop Solution (KPL) was added to stop the reaction, and the absorbance at 450 nm was measured. ELISA with respect to aggregated human αSyn was performed by coating with the aggregated human αSyn (Stress Marq) at 15 ng/well instead of human αSyn in the above-mentioned method.
The antibody-inducing ability of the AJ-human αSyn peptide conjugates (AJ-p54, AJ-p54-KLH, and AJ-DMPVDPDN) produced in Example 1 with respect to human αSyn and aggregated human αSyn in mice was evaluated. Physiological saline or the AJ-human αSyn peptide conjugate (250 μg/mouse) was intramuscularly administered to balb/c mice (females, 6 weeks old, CLEA Japan, Inc.) twice at a 2-week interval using Alum (InvivoGen, 50 μg/mouse) as an adjuvant. Furthermore, KLH-DMPVDPDN (25 μg/mouse) was administered using Alum (InvivoGen, 50 μg/mouse) as an adjuvant. Two weeks after the second administration, serum was recovered to evaluate the antibody titer by ELISA. ELISA was performed by the method described in Example 2.
The antibody-inducing ability of the produced various human αSyn peptide conjugates with respect to human αSyn and aggregated human αSyn in the mice was evaluated by the method described in Example 2 using the antibody titers with respect to human αSyn and aggregated human αSyn of the mouse immune serum. […] In Table 6, the antibody titer of AJ-p242, AJ-p244, AJ-p347, or AJ-p361 is shown with the antibody titer of AJ-p150 as a control being 1 (logarithm). In addition, the antibody titers of AJ-p229, AJ-p237, and AJ-p298 are shown with the antibody titer of AJ-p54 as a control being 1 (logarithm).
The antibody-inducing ability of the AJ-human αSyn peptide conjugates with a modified linker with respect to human αSyn and aggregated human αSyn in the mice was evaluated using the antibody titers with respect to human αSyn and aggregated human αSyn of the mouse immune serum. […] In Table 8, the antibody titers of the AJ-human αSyn peptide conjugates with various modified linkers comprising p54 are shown with the antibody titer of AJ-p54 as a control being 1 (logarithm). In addition, the antibody titers of the AJ-human αSyn peptide conjugates with various modified linkers comprising p150 are shown with the antibody titer of AJ-p150 as a control being 1 (logarithm).

[2] = system: human αSyn; assay: Antibody-inducing ability in mice: ELISA antibody titer of immune serum with respect to human αSyn; format: in vivo, mouse; design: key to Antibody titer with respect to human αSyn, relative to control: log titer relative to control conjugate (control = 1); conditions: for Antibody titer with respect to human αSyn (N = 4 − 6, mean ± standard deviation): Example 2, balb/c mice, i.m. twice at 2-week interval, Alum, AJ conjugates 250 μg/mouse, KLH-DMPVDPDN 25 μg/mouse, serum 2 weeks after second administration; for Antibody titer with respect to human αSyn, relative to control / Antibody titer (N = 4 − 6, mean ± standard deviation) with respect to human αSyn: mice; for Antibody titer compared with control conjugate (in words): Example 9, mice, human αSyn and aggregated human αSyn, control AJ-p150 or AJ-p54; for Induction of the antibody to human αSyn (in words): Example 3, mice; for Antibody titer (N = 4 − 6, mean ± standard deviation) with respect to human αSyn: Example 3, same manner as Example 2
Procedure: as §1
as §2, with “above-mentioned method. […]” for “above-mentioned method.”
The antibody-inducing ability of the produced various human αSyn peptide conjugates with respect to human αSyn and aggregated human αSyn in the mice was evaluated by the method described in Example 2 using the antibody titers with respect to human αSyn and aggregated human αSyn of the mouse immune serum. […] In Table 6, the antibody titer of AJ-p242, AJ-p244, AJ-p347, or AJ-p361 is shown with the antibody titer of AJ-p150 as a control being 1 (logarithm). In addition, the antibody titers of AJ-p229, AJ-p237, and AJ-p298 are shown with the antibody titer of AJ-p54 as a control being 1 (logarithm). […]

[3] = Example 10, modified linker, titer of AJ-p54 or AJ-p150 as control being 1 (logarithm)
[4] = Example 9, N = 4, titer of AJ-p150 or AJ-p54 as control being 1 (logarithm)

## ELKLIFLHRLKRLRKRLKRKXDAYEMPSEEG (ELKLIFLHRLKRLRKRLKRK[Ahx]DAYEMPSEEG) [AJ-p276]
[1]
  Antibody titer with respect to aggregated human αSyn (N = 4 − 6, mean ± standard deviation): 896 ± 256
[2]
  Antibody titer with respect to human αSyn (N = 4 − 6, mean ± standard deviation): 1792 ± 512

## ELKLIFLHRLKRLRKRLKRKGEAYEMPSEE [AJ-G-p150]
[1]; [3]
  Antibody titer with respect to aggregated human αSyn, relative to control: 0.95
[2]; [3]
  Antibody titer with respect to human αSyn, relative to control: 0.96

## ELKLIFLHRLKRLRKRLKRKXEAAEMPSEEG (ELKLIFLHRLKRLRKRLKRK[Ahx]EAAEMPSEEG) [AJ-p244]
[1]; [4]
  Antibody titer with respect to aggregated human αSyn, relative to control: 1.10
[2]
  Antibody titer compared with control conjugate (in words): same level of an antibody titer
[2]; [4]
  Antibody titer with respect to human αSyn, relative to control: 1.06

## ELKLIFLHRLKRLRKRLKRKXKKDQLGANE (ELKLIFLHRLKRLRKRLKRK[Ahx]KKDQLGANE) [AJ-p142]
[1]
  Antibody titer with respect to aggregated human αSyn (N = 4 − 6, mean ± standard deviation): 576 ± 732
[2]
  Antibody titer with respect to human αSyn (N = 4 − 6, mean ± standard deviation): 4693 ± 6431

## ELKLIFLHRLKRLRKRLKRKϵKKKKKDQLGKNE [AJ-εKKK-p54]
[1]; [3]
  Antibody titer with respect to aggregated human αSyn, relative to control: 0.88
[2]; [3]
  Antibody titer with respect to human αSyn, relative to control: 0.74

## ELKLIFLHRLKRLRKRLKRKXDAFEMPSEEG (ELKLIFLHRLKRLRKRLKRK[Ahx]DAFEMPSEEG) [AJ-p361]
[1]; [4]
  Antibody titer with respect to aggregated human αSyn, relative to control: 0.95
[2]
  Antibody titer compared with control conjugate (in words): same level of an antibody titer
[2]; [4]
  Antibody titer with respect to human αSyn, relative to control: 0.92

## ELKLIFLHRLKRLRKRLKRKXAAYEMPSEEG (ELKLIFLHRLKRLRKRLKRK[Ahx]AAYEMPSEEG) [AJ-p242]
[1]; [4]
  Antibody titer with respect to aggregated human αSyn, relative to control: 1.12
[2]
  Antibody titer compared with control conjugate (in words): same level of an antibody titer
[2]; [4]
  Antibody titer with respect to human αSyn, relative to control: 1.06

## ELKLIFLHRLKRLRKRLKRKϵKKKKEAYEMPSEE [AJ-εKKKK-p150]
[1]; [3]
  Antibody titer with respect to aggregated human αSyn, relative to control: 1.00
[2]; [3]
  Antibody titer with respect to human αSyn, relative to control: 0.97

## ELKLIFLHRLKRLRKRLKRKXKKDQLGKNEE (ELKLIFLHRLKRLRKRLKRK[Ahx]KKDQLGKNEE) [AJ-p167]
[1]
  Antibody-inducing ability regarding the aggregated human αSyn (in words): particularly strong antibody-inducing ability
  Antibody titer with respect to aggregated human αSyn (N = 4 − 6, mean ± standard deviation): 1664 ± 1409
[2]
  Antibody titer with respect to human αSyn (N = 4 − 6, mean ± standard deviation): 2389 ± 1399

## ELKLIFLHRLKRLRKRLKRKXKKNQLGKND (ELKLIFLHRLKRLRKRLKRK[Ahx]KKNQLGKND) [AJ-p272]
[1]
  Antibody-inducing ability regarding the aggregated human αSyn (in words): particularly strong antibody-inducing ability
  Antibody titer with respect to aggregated human αSyn (N = 4 − 6, mean ± standard deviation): 1536 ± 1724
[2]
  Antibody titer with respect to human αSyn (N = 4 − 6, mean ± standard deviation): 4096 ± 2896

## ELKLIFLHRLKRLRKRLKRKGKKDQLGKNE [AJ-G-p54]
[1]; [3]
  Antibody titer with respect to aggregated human αSyn, relative to control: 0.96
[2]; [3]
  Antibody titer with respect to human αSyn, relative to control: 0.89

## ELKLIFLHRLKRLRKRLKRKXHAFEMPSEEG (ELKLIFLHRLKRLRKRLKRK[Ahx]HAFEMPSEEG) [AJ-p347]
[1]; [4]
  Antibody titer with respect to aggregated human αSyn, relative to control: 0.97
[2]
  Antibody titer compared with control conjugate (in words): same level of an antibody titer
[2]; [4]
  Antibody titer with respect to human αSyn, relative to control: 0.97

## ELKLIFLHRLKRLRKRLKRKXKKDQLGKND (ELKLIFLHRLKRLRKRLKRK[Ahx]KKDQLGKND) [AJ-p233]
[1]
  Antibody titer with respect to aggregated human αSyn (N = 4 − 6, mean ± standard deviation): 555 ± 377
[2]
  Antibody titer with respect to human αSyn (N = 4 − 6, mean ± standard deviation): 1323 ± 1505

## ELKLIFLHRLKRLRKRLKRKXKRDQLGKNE (ELKLIFLHRLKRLRKRLKRK[Ahx]KRDQLGKNE) [AJ-p227]
[1]
  Antibody-inducing ability regarding the aggregated human αSyn (in words): particularly strong antibody-inducing ability
  Antibody titer with respect to aggregated human αSyn (N = 4 − 6, mean ± standard deviation): 3072 ± 2748
[2]
  Antibody titer with respect to human αSyn (N = 4 − 6, mean ± standard deviation): 4267 ± 3200

## ELKLIFLHRLKRLRKRLKRKGGGGSKKDQLGKNE [AJ-GGGGS-p54]
[1]; [3]
  Antibody titer with respect to aggregated human αSyn, relative to control: 1.02
[2]; [3]
  Antibody titer with respect to human αSyn, relative to control: 1.05

## ELKLIFLHRLKRLRKRLKRKXEAYEMPSEE (ELKLIFLHRLKRLRKRLKRK[Ahx]EAYEMPSEE) [AJ-p150, AJ peptide linked to p150 via ε-Acp (X)]
[1]
  Antibody titer with respect to aggregated human αSyn (N = 4 − 6, mean ± standard deviation): 576 ± 322
[1]; [4]
  Antibody titer with respect to aggregated human αSyn, relative to control: 1
[1]; [3]
  Antibody titer with respect to aggregated human αSyn, relative to control: 1
[2]
  Antibody titer with respect to human αSyn (N = 4 − 6, mean ± standard deviation): 2176 ± 1471
[2]; [4]
  Antibody titer with respect to human αSyn, relative to control: 1
[2]; [3]
  Antibody titer with respect to human αSyn, relative to control: 1

## ELKLIFLHRLKRLRKRLKRKϵKEAYEMPSEE [AJ-εK-p150]
[1]; [3]
  Antibody titer with respect to aggregated human αSyn, relative to control: 0.86
[2]; [3]
  Antibody titer with respect to human αSyn, relative to control: 0.82

## KLH-C-ELKLIFLHRLKRLRKRLKRKXKKDQLGKNE ({KLH}-CELKLIFLHRLKRLRKRLKRK[Ahx]KKDQLGKNE) [KLH-AJ-p54, KLH-modified AJ-human αSyn peptide conjugate, KLH linked via cysteine to the N-terminal]
[2]
  Induction of the antibody to human αSyn (in words): induced to the same extent
  Antibody titer (N = 4 − 6, mean ± standard deviation) with respect to human αSyn: 1707 ± 1240

## KKDQLGKNE-C-KLH (KKDQLGKNEC-{KLH}) [p54-KLH, KLH-human αSyn peptide conjugate]
[2]
  Induction of the antibody to human αSyn (in words): the antibody to human αSyn was induced
  Antibody titer (N = 4 − 6, mean ± standard deviation) with respect to human αSyn: 3072 ± 2748

## KLH-C-KKDQLGKNE ({KLH}-CKKDQLGKNE) [KLH-p54, KLH-human αSyn peptide conjugate]
[2]
  Induction of the antibody to human αSyn (in words): the antibody to human αSyn was induced
  Antibody titer (N = 4 − 6, mean ± standard deviation) with respect to human αSyn: 4096 ± 2243

Reference: patent US20240270801A1, “EPITOPE PEPTIDE OF HUMAN ALPHA-SYNUCLEIN AND PHARMACEUTICAL COMPOSITION INCLUDING SAID PEPTIDE” (Sumitomo Pharma Co., Ltd., priority 2021, published 2024)
